Results from patent publication US20240382529A1, “COMPOSITIONS AND METHODS FOR TREATING SPINAL CORD INJURIES” (ASTERIAS BIOTHERAPEUTICS, INC., priority 2022, published 2024).

B1: Decorin: extracellular small leucine-rich proteoglycan, TGF-β1/2 antagonist; recombinant form used in rat SCI models (protein, UniProt P07585 31-359, looked up)
Decorin: DEASGIGPEVPDDRDFEPSLGPVCPFRCQCHLRVVQCSDLGLDKVPKDLPPDTTLLDLQNNKITEIKDGDFKNLKNLHALILVNNKISKVSPGAFTPLVKLERLYLSKNQLKELPEKMPKTLQELRAHENEITKVRKVTFNGLNQMIVIELGTNPLKSSGIENGAFQGMKKLSYIRIADTNITSIPQGLPPSLTELHLDGNKISRVDAASLKGLNNLAKLGLSFNSISAVDNGSLANTPHLRELHLDNNKLTRVPGGLAEHKYIQVVYLHNNNISVVGSSDFCPPGHNTKKASYSGVSLFSNPVQYWEIQPSTFRCVYVRSAIQLGNYK

Key:
[1] = tested on: T3 to T11 neurologically complete spinal cord injuries (SCI); experiment: Phase 1 thoracic SCI trial of LCTOPC1 (NCT01217008): safety, adverse events; format: in vivo, human; details: 60 days immunosuppression
Method: Study design. The trial design was an open-label, multicenter study. A single dose of 2×10^6 LCTOPC1 was injected within 7 to 14 days following SCI. Subjects who received LCTOPC1 also received tacrolimus to prevent rejection. Subjects will be followed by protocol for 15 years following administration of LCTOPC1. This study was a Phase 1, multi-center, non-randomized, a single group assignment interventional clinical trial. The Participants were enrolled from one of seven centers in the United Sates. The study was registered (NCT01217008) and the primary endpoint was safety, as measured by the frequency and severity of adverse events related to LCTOPC1, the injection procedure used to administer LCTOPC1, and/or the concomitant immunosuppression administered. The secondary endpoint was neurological function as measured by sensory scores and lower extremity motor scores on […] examinations. […] The primary endpoint was safety measured by the frequency and severity of adverse events related to the OPC1 injection, the injection procedure, and/or the concomitant immunosuppression administered. The secondary endpoint was neurological function as measured by sensory scores and lower extremity motor scores as measured by the […] examinations. […] The severity of AEs and the characterization of Serious Adverse Events (SAEs) were evaluated using standard FDA criteria. […]

[2] = tested on: subacute cervical spinal cord injuries (SCI); experiment: Phase 1/2a cervical SCI trial: safety, adverse events; format: in vivo, human
Method: Study Design. The trial design was an open-label, staggered dose escalation, cross-sequential, multicenter study. Three sequential, escalating doses of AST-OPC1 were administered at a single time point between 21 and 42 days post-injury to subjects with subacute cervical spinal cord injuries (SCI). Subjects received AST-OPC1 via direct intra-spinal injection using a Syringe Positioning Device (SPD). To prevent rejection of engraftment, low dose tacrolimus was initiated 6 to 12 hours after and intra-spinal injection, and continued for 46 days, tapered from Day 46 to Day 60, and was discontinued at Day 60. Subjects were followed for 1 year following administration of AST-OPC1 under this protocol. Male or female subjects from 18 to 69 years of age at time of consent with sensorimotor complete, traumatic SCI (American Spinal Injury Association Impairment Scale A) or sensorimotor incomplete, traumatic SCI (American Spinal Injury Association Impairment Scale B). […] There was a single spinal cord lesion on a post-stabilization magnetic resonance imaging (MRI) scan, with sufficient visualization of the spinal cord injury epicenter and lesion margins to enable post-injection safety monitoring. Subjects were able to participate in an elective surgical procedure to inject AST-OPC1 21 to 42 days following SCI. Subjects received a single dose of either 2×10^6, 1×10^7, or 2×10^7 AST-OPC1 viable cells by injection, administered 21 to 42 days following SCI. The product was delivered intraoperatively into the spinal cord using the Syringe Positioning Device. The AST-OPC1 batch numbers used in this study were M08D1A, M22D1A and M25D1A. Single administration of AST-OPC1 was provided with 1 year of follow-up. Schematics of the planned study timeline, and subject screening and treatment, are provided in FIG. 6 and FIG. 7, respectively. A schematic diagram of the final open-label, staggered dose-escalation, multicenter Phase 1/2a clinical trial is shown in FIG. 8. An overview of study visits for the one-year protocol is presented in the study schema in FIG. 9.
A neurological examination was completed using the standardized International Standards for Neurological Classification of Spinal Cord Injury (ISNCSCI) examination for motor and sensory testing and for designation of the American Spinal Injury Association impairment scale. The ISNCSCI is used for efficacy with respect to improved motor function in the extremities, improved sensory function, and/or a descending neurological level. Safety assessments included physical examination, vital signs, ISNCSCI neurological examination, pain questionnaire (International Spinal Cord Injury Pain Basic Data Set, ISCIPBDS), electrocardiogram (ECG), Magnetic Resonance Imaging (MRI), laboratory tests, concomitant medications, and adverse events (AEs). Results for the ISNCSCI were listed for each subject by scheduled visit and analyzed by change in motor level and motor scores as well as other exploratory assessments of arm/hand function, self-care ability and overall volitional performance. Adverse events were tabulated by system organ class and by preferred term within system organ class according to the Medical Dictionary for Regulatory Activities (MedDRAR) Version 18.0. S[…] of the safety data was performed using descriptive statistical methods including AEs incidence, severity and relatedness to AST-OPC1, to the injection procedure for product administration, and concomitant immunosuppression with tacrolimus. The number of laboratory assessments (hematology, clinical chemistry) that were below, within, or above the normal laboratory reference range were summarized for each analyte at scheduled study visits. Vital signs were summarized by calculating the mean, standard deviation, median, and range of values at each of the protocol-specified time points.
Study Endpoints. […]

[3] = tested on: dorsal funicular lesion (DFL) SCI model; details: cited from earlier work

Molecule | Grade 1 AEs possibly related specifically to tacrolimus [1] | Grade 2 AEs possibly related specifically to tacrolimus [1] | AEs related to Tacrolimus that were hypomagnesemia ([2]; both, human, in vivo, 60 days) | Decreased Appetite: Severity ([2]; both, human, in vivo, 60 days) | Hypomagnesemia: Days from Injection ([2]; both, human, in vivo, 60 days) | Hypomagnesemia: Severity ([2]; both, human, in vivo, 60 days) | Nausea: Days from Injection ([2]; both, human, in vivo, 60 days) | Nausea: Severity ([2]; both, human, in vivo, 60 days) | Bacterial infection: Days from Injection ([2]; causality Tacrolimus) | Bacterial infection: Outcome ([2]; causality Tacrolimus) | Bacterial infection: Severity ([2]; causality Tacrolimus) | Decreased Appetite: Outcome ([2]; in vivo) | Hypomagnesemia: Outcome ([2]; in vivo) | Nausea: Outcome ([2]; in vivo) | tolerability of immunosuppression ([2]; in vivo) | effect on scarring and wound cavitation ([3]; DFL SCI model, adult rats) | axonal regrowth ([3]; Decorin-treated vs PBS-treated DFL) | inflammation, glial scar formation, CSPG expression ([3]; after acute spinal cord injury)
C=CC[C@@H]1/C=C(\C)C[C@H](C)C[C@H](OC)[C@H]2O[C@@](O)(C(=O)C(=O)N3CCCC[C@H]3C(=O)O[C@H](/C(C)=C/[C@@H]3CC[C@@H](O)[C@H](OC)C3)[C@H](C)[C@@H](O)CC1=O)[C@H](C)C[C@@H]2OC [Tacrolimus, tacrolimus] | Seven Grade 1 AEs | nine Grade 2 AEs | 8/11 | Grade 2 | 5 to 43 days | 1-2 Grade | 7 days | Grade 2 | 30 days | Resolved | Grade 3 | Resolved | Resolved | Resolved | well-tolerated |  |  | 
B1 |  |  |  |  |  |  |  |  |  |  |  |  |  |  |  | suppressed acute scarring (fibrogenesis) and wound cavitation | promoted axonal regrowth in both acute and chronic experiments | inhibit inflammation, glial scar formation and CSPG expression
